Molecular target: T1, human CCR-3 (Homo sapiens, UniProt P51677)
T1 construct: expressed in transfected cells; host or cells: rat basophil leukaemia (RBL-2H3) cells, membrane preparation
T1 sequence (P51677 1-355): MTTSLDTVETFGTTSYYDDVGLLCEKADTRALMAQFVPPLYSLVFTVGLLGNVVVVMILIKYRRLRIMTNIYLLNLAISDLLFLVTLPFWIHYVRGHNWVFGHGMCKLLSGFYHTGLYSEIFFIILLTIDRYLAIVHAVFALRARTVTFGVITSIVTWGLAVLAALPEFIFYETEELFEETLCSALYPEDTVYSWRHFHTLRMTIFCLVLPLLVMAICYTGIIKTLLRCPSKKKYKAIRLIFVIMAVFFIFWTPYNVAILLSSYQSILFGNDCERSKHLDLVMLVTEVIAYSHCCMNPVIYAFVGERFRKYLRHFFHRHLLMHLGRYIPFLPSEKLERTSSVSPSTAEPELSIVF
Experiment: binding of [125I]-human eotaxin to human CCR3 (SPA, membranes of RBL-2H3 cells expressing CCR3)
Conditions: 4 hours at room temperature, read-out: IC50 value (inhibition of eotaxin binding to CCR3)
Description: In this assay the effect of the compounds of the present invention on the binding of human eotaxin to human CCR-3 is determined. Recombinant cells expressing human CCR3 are captured by wheatgerm agglutinin (WGA) polyvinyltoluidene (PVT) SPA beads (available from Amersham), through a specific interaction between the WGA and carbohydrate residues of glycoproteins on the surface of the cells. [^125I]-human eotaxin (available from Amersham) binds specifically to CCR3 receptors bringing the [^125I]-human eotaxin in close proximity to the SPA beads. Emitted […] from the [^125I]-human eotaxin excite, by its proximity, the fluorophore in the beads and produce light.
Preparation of Assay Buffer: 5.96 g HEPES and 7.0 g sodium chloride are dissolved in distilled H2O and 1M aqueous CaCl2 (1 ml) and 1M aqueous MgCl2 (5 ml) are added. The pH is adjusted to 7.6 with NaOH and the solution made to a final volume of 1 L using distilled H2O. 5 g of bovine serum albumin and 0.1 g NaN3 are dissolved in the solution and the resulting buffer stored at 4° C. […]
The assay is performed in a final volume of 250 μl per well of an Optiplate™ microplate (ex Canberra Packard). […] The resulting scintillations are counted using a Canberra Packard TopCount™ scintillation counter, each well being counted for 1 minute. […]

SMILES: COc1ccc(OC)c(NC(=O)C[n+]2cc(-c3ccc(Cl)c(Cl)c3)n3c2CCC3)c1 [Example 322]
- IC50: 21 nM

SMILES: O=C(C[n+]1cc(-c2ccc(Cl)c(Cl)c2)n2c1CCC2)Nc1ccc2c(c1)OCCO2 [Example 341]
- IC50: 23 nM

Reference: patent US20080207718A1, “Use of Fused Imidazole Derivatives to Mediate Ccr3 Related Conditions” (priority 2005, published 2008)
